Data reported in ChEMBL document CHEMBL4673300, “Fragment-Based Discovery of Novel Non-Hydroxamate LpxC Inhibitors with Antibacterial Activity” (J Med Chem, 2020).
In brackets after ≈: the same amount, converted by molar mass. Each block holds one compound with its values, some of them ahead of it. Activity calls are given as the source filed them. The rule behind the calls is not given here.

How the values were obtained:
[1] = biological target: T1, UDP-3-O-acyl-N-acetylglucosamine deacetylase (Pseudomonas aeruginosa (strain ATCC 15692 / PAO1 / 1C / PRS 101 / LMG12228), UniProt P47205); experiment: Inhibition of histidine-tagged Pseudomonas aeruginosa LpxC (1-303) expressed in Escherichia coli BL21 (DE3) using UDP-3-O-(R-3-hydroxydecanoyl)-N-acetylglucosamine as substrate measured after 60 mins by Fluorescence plate reader analysis
T1 sequence (P47205 whole entry): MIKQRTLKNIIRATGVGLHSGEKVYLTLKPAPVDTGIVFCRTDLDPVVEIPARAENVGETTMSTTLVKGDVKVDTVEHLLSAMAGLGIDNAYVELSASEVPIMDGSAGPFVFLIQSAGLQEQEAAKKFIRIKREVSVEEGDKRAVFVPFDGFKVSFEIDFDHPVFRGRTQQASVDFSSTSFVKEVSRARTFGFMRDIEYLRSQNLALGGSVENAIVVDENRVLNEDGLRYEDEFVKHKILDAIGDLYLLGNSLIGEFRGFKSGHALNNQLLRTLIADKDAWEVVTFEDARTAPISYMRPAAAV

[2] = biological target: T1, UDP-3-O-acyl-N-acetylglucosamine deacetylase; experiment: Displacement of (S)-N-(2-(N-(3-biphenyl-4-ylcarboxamido-4-(hydroxyamino)-4-oxobutyl)sulfamoyl)ethyl)-3',6'-dihydroxy-3-oxo-3H-spiro[isobenzofuran-1,9'-xanthene]-5-carboxamide fluorescent probe from histidine tagged Pseudomonas aeruginosa LpxC (1-303) expressed in Escherichia coli BL21 (DE3) preincubated for 30 mins followed by addition of fluorscein probe measured after 2 hrs by fluorescence …
[3] = test system: Pseudomonas aeruginosa; experiment: Antibacterial activity against Pseudomonas aeruginosa 5567 in presence of human serum albumin by CLSI method; format: functional
[4] = test system: Pseudomonas aeruginosa; experiment: Antibacterial activity against Pseudomonas aeruginosa ATCC 27853 by CLSI method; format: functional
[5] = test system: Pseudomonas aeruginosa; experiment: Antibacterial activity against Pseudomonas aeruginosa 5567 in absence of human serum albumin by CLSI method; format: functional
[6] = test system: Klebsiella pneumoniae; experiment: Antibacterial activity against Klebsiella pneumoniae ATCC 13883 by CLSI method; format: functional
[7] = test system: Escherichia coli; experiment: Antibacterial activity against Escherichia coli ATCC 25922 by CLSI method; format: functional
[8] = biological target: T1, UDP-3-O-acyl-N-acetylglucosamine deacetylase; experiment: Inhibition of histidine-tagged Pseudomonas aeruginosa LpxC (1-303) expressed in Escherichia coli BL21 (DE3) using UDP-3-O-(R-3-hydroxydecanoyl)-N-acetylglucosamine as substrate measured after 60 mins by LC-MS/MS analysis
[9] = biological target: Stromelysin-1 (Homo sapiens, UniProt P08254); experiment: Inhibition of human MMP-3 by fluorometric assay
Chain of Stromelysin-1 (P08254 whole entry): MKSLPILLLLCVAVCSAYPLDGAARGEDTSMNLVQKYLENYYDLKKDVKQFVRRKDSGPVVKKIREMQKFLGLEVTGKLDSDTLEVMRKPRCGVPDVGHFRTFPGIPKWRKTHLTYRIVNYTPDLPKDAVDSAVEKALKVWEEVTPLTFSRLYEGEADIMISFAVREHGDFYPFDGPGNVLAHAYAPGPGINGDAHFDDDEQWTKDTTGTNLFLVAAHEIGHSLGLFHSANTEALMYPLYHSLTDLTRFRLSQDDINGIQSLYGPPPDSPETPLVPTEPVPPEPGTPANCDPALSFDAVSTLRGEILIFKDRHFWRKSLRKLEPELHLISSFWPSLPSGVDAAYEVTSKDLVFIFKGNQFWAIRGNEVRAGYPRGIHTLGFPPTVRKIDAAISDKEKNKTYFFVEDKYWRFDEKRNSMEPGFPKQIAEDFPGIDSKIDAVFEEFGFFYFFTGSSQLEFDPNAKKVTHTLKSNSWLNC

[10] = biological target: Matrix metalloproteinase-9 (Homo sapiens, UniProt P14780); experiment: Inhibition of human MMP-9 by fluorometric assay
Chain of Matrix metalloproteinase-9 (P14780 whole entry): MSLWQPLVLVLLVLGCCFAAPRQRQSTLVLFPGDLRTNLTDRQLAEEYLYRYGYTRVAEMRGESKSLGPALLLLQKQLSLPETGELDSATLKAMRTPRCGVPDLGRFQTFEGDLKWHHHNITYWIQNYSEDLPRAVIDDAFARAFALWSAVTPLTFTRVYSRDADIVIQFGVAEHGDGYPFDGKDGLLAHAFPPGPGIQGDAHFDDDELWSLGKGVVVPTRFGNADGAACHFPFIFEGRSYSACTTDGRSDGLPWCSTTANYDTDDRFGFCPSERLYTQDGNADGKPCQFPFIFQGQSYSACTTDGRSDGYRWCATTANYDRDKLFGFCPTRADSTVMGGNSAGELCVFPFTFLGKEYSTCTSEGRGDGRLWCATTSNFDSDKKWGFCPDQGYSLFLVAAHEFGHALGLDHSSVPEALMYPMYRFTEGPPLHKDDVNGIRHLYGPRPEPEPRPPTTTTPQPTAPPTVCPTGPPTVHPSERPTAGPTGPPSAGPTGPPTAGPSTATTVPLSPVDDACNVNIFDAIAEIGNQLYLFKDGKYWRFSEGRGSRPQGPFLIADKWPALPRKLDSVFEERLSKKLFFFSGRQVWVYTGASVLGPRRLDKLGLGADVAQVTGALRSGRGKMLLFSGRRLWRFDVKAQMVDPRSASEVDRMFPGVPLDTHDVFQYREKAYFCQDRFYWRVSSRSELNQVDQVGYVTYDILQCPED

[11] = biological target: 72 kDa type IV collagenase (Homo sapiens, UniProt P08253); experiment: Inhibition of human MMP-2 by fluorometric assay
Chain of 72 kDa type IV collagenase (P08253 whole entry): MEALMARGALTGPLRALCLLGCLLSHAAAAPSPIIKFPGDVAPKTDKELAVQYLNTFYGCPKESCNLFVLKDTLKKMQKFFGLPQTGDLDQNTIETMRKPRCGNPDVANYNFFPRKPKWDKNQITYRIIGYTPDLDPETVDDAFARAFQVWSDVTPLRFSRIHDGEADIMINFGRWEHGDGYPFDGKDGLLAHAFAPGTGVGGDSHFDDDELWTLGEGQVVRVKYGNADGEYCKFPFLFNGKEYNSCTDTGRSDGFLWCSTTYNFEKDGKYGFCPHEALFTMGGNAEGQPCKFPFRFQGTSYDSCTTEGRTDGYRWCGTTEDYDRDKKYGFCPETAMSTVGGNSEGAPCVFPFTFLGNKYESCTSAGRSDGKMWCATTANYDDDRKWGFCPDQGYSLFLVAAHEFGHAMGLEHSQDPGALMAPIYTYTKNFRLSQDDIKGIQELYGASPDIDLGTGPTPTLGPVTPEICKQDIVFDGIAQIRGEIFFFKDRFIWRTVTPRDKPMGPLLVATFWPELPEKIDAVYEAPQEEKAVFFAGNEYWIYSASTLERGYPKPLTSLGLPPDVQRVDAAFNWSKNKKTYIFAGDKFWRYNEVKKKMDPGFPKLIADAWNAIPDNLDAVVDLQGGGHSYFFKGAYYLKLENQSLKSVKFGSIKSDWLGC

[12] = test system: Escherichia coli; experiment: Antibacterial activity against Escherichia coli ATCC 25922 in presence of efflux pump inhibitor phenylalanine-arginine beta-naphthylamideby CLSI method; format: functional
[13] = test system: Pseudomonas aeruginosa; experiment: Antibacterial activity against Pseudomonas aeruginosa ATCC 27853 in presence of efflux pump inhibitor phenylalanine-arginine beta-naphthylamide by CLSI method; format: functional

SMILES: CC(O)c1nccn1CCCc1ccc(Cl)cc1 (racemic)
- IC50 [1]: 10.4 µM
- IC50 [2]: 0.809 µM

SMILES: C[C@@H](O)c1nccn1Cc1cc(C#Cc2ccc(CCCO)cc2)on1
- IC50 [1]: 1.4 µM
- MIC [3]: > 128 µg/mL
- MIC [4]: > 128 µg/mL
- MIC [5]: > 128 µg/mL
- MIC [6]: > 128 µg/mL
- MIC [7]: > 128 µg/mL

SMILES: CC(O)c1nccn1Cc1ccc(-c2ccccc2)cc1 (racemic)
- IC50 [1]: 3.94 µM
- IC50 [2]: 0.546 µM

SMILES: C[C@H](O)c1nccn1Cc1cc(C#Cc2ccc(CCCO)cc2)on1
- IC50 [1]: 0.00403 µM
- MIC [3]: > 64 µg/mL
- MIC [4]: 32 µg/mL (≈ 91.1 µM)
- MIC [5]: 16 µg/mL (≈ 45.5 µM)
- MIC [6]: 2 µg/mL (≈ 5.69 µM)
- MIC [7]: 0.5 µg/mL (≈ 1.42 µM)

SMILES: CC(O)c1nccn1CCCc1ccc(-c2ccccc2)cc1 (racemic)
- IC50 [1]: 0.133 µM
- IC50 [2]: 0.0269 µM

SMILES: CC(O)c1nccn1CCCc1ccc(C#Cc2ccccc2)cc1 (racemic)
- IC50 [1]: 0.161 µM
- IC50 [2]: 0.0522 µM

SMILES: CC(O)c1nccn1Cc1ccc(Cl)cc1 (racemic)
- IC50 [1]: 214 µM
- IC50 [2]: 39.9 µM

SMILES: Clc1ccc(OCCCn2ccnc2)cc1
- IC50 [1]: 144 µM
- IC50 [2]: 118 µM

SMILES: CC(O)c1nccn1Cc1cc(C#Cc2ccccc2)on1 (racemic)
- IC50 [1]: 0.0475 µM
- MIC [3]: > 128 µg/mL
- IC50 [2]: 0.0206 µM
- MIC [4]: > 128 µg/mL
- MIC [5]: 64 µg/mL (≈ 218 µM)
- MIC [6]: 32 µg/mL (≈ 109 µM)
- MIC [7]: 16 µg/mL (≈ 54.5 µM)

SMILES: Clc1ccc(CCn2ccnc2)cc1
- IC50 [2]: 2780 µM

SMILES: OCc1nccn1CCCc1ccc(Cl)cc1
- IC50 [1]: 108 µM
- IC50 [2]: 36.7 µM

SMILES: CC(O)c1nccn1Cc1cc(C#Cc2ccc(CCCO)cc2)on1 (racemic)
- IC50 [1]: 0.00896 µM
- MIC [3]: > 128 µg/mL
- MIC [4]: 64 µg/mL (≈ 182 µM)
- MIC [5]: 32 µg/mL (≈ 91.1 µM)
- MIC [6]: 4 µg/mL (≈ 11.4 µM)
- MIC [7]: 2 µg/mL (≈ 5.69 µM)

SMILES: CC(O)c1nccn1CCc1ccc(C#Cc2ccccc2)cc1 (racemic)
- IC50 [1]: 2.4 µM
- IC50 [2]: 1.76 µM

SMILES: Clc1ccc(CCCn2ccnc2)cc1
- IC50 [1]: 111 µM
- IC50 [2]: 125 µM

SMILES: CC(O)c1nccn1Cc1ccc(C#Cc2ccccc2)cc1 (racemic)
- Activity [12]: inactive
- IC50 [1]: 0.568 µM
- IC50 [2]: 0.0929 µM

SMILES: Clc1ccc(CCCCn2ccnc2)cc1
- IC50 [1]: 60.4 µM
- IC50 [2]: 43.2 µM

SMILES: C[C@H](O)c1nccn1Cc1cc(C#Cc2ccc(OCCCNC3COC3)cc2)on1
- IC50 [1]: 0.00463 µM
- MIC [3]: 64 µg/mL
- MIC [4]: 8 µg/mL (≈ 18.9 µM)
- MIC [5]: 8 µg/mL (≈ 18.9 µM)
- MIC [6]: 1 µg/mL (≈ 2.37 µM)
- MIC [7]: 1 µg/mL (≈ 2.37 µM)

Other lines, results leading:

- IC50 [2]: 5.69 µM
- IC50 [8]: 11.3 µM
SMILES: N[C@H](CC(=O)O)C(=O)Nc1cccc(OC(F)(F)F)c1

- IC50 [8]: 0.66 µM
SMILES: N[C@H](CO)C(=O)N1CCC(Cc2ccc(-c3ccccc3)cc2)CC1

- IC50 [1]: 1130 µM
- IC50 [2]: > 2000 µM
SMILES: OC(COc1ccccc1)Cn1ccnc1 (racemic)

- IC50 [2]: 40.1 µM
- IC50 [8]: 36.7 µM
SMILES: NC[C@@H](N)C(=O)Nc1cccc(OC(F)(F)F)c1

- IC50 [1]: 0.02 µM
- IC50 [9]: > 100 µM
- MIC [3]: 8 µg/mL
- MIC [4]: 4 µg/mL (≈ 9.7 µM)
- MIC [5]: 4 µg/mL (≈ 9.7 µM)
- MIC [6]: 64 µg/mL (≈ 155 µM)
- IC50 [10]: > 100 µM
- IC50 [11]: > 100 µM
- MIC [7]: 16 µg/mL (≈ 38.8 µM)
SMILES: C[C@H](O)c1nccn1Cc1cc(C#Cc2ccc(OCC(N)(CO)CO)cc2)on1

- MIC [12]: 16 µg/mL
- MIC [13]: 32 µg/mL
- MIC [4]: > 32 µg/mL
- IC50 [8]: 0.0221 µM
- MIC [7]: > 32 µg/mL
SMILES: N[C@H](CO)C(=O)N1CCC(Cc2ccc(C#Cc3ccc(CO)cc3)cc2)CC1

- MIC [12]: 1 µg/mL
- MIC [13]: 8 µg/mL
- IC50 [9]: > 100 µM
- MIC [4]: 64 µg/mL (≈ 132 µM)
- IC50 [10]: > 100 µM
- IC50 [11]: > 100 µM
- MIC [7]: 64 µg/mL (≈ 132 µM)
SMILES: CS(=O)(=O)C[C@H](O)[C@@H](N)C(=O)N1CCC(Cc2ccc(C#Cc3ccc(CO)cc3)cc2)CC1 (racemic)

- IC50 [8]: 4.53 µM
SMILES: N[C@H](CO)C(=O)N1CCC(Cc2ccc(CCc3ccccc3)cc2)CC1

- IC50 [2]: > 100 µM
- IC50 [8]: > 100 µM
SMILES: CS(=O)(=O)C[C@@H](N)C(=O)Nc1cccc(OC(F)(F)F)c1

- IC50 [8]: 0.034 µM
SMILES: N[C@H](CO)C(=O)N1CCC(Cc2ccc(C#Cc3ccccc3)cc2)CC1

- IC50 [2]: 37.9 µM
- IC50 [8]: 43.8 µM
SMILES: CS(=O)(=O)NC[C@@H](N)C(=O)Nc1cccc(OC(F)(F)F)c1

- IC50 [1]: 10.4 µM
- IC50 [2]: 6.48 µM
SMILES: CC(O)c1nccn1CCc1ccc(-c2ccccc2)cc1 (racemic)

- IC50 [1]: 466 µM
- IC50 [2]: 259 µM
SMILES: OC(COc1ccc(Cl)cc1)Cn1ccnc1 (racemic)

- IC50 [1]: 0.884 µM
- IC50 [2]: 0.125 µM
SMILES: CC(O)c1nccn1Cc1cc(-c2ccccc2)on1 (racemic)

- IC50 [8]: 24.9 µM
SMILES: N[C@H](CO)C(=O)N1CCC(Cc2ccccc2)CC1

- IC50 [2]: 54.9 µM
- IC50 [8]: 41.9 µM
SMILES: NCC(=O)Nc1cccc(OC(F)(F)F)c1

- IC50 [2]: 8.97 µM
- IC50 [8]: 10 µM
SMILES: CS(=O)(=O)CC[C@@H](N)C(=O)Nc1cccc(OC(F)(F)F)c1

- IC50 [1]: 261 µM
- IC50 [2]: 67.8 µM
SMILES: CC(O)c1nccn1CCc1ccc(Cl)cc1 (racemic)

- IC50 [1]: 0.00442 µM
- MIC [3]: 16 µg/mL
- MIC [4]: 4 µg/mL (≈ 9.79 µM)
- MIC [5]: 4 µg/mL (≈ 9.79 µM)
- MIC [6]: 4 µg/mL (≈ 9.79 µM)
- MIC [7]: 4 µg/mL (≈ 9.79 µM)
SMILES: C[C@H](O)c1nccn1Cc1cc(C#Cc2ccc(OC3CN(CCO)C3)cc2)on1

- IC50 [1]: 0.00704 µM
- MIC [3]: 16 µg/mL
- MIC [4]: 2 µg/mL (≈ 4.88 µM)
- MIC [5]: 4 µg/mL (≈ 9.77 µM)
- MIC [6]: 32 µg/mL (≈ 78.1 µM)
- MIC [7]: 2 µg/mL (≈ 4.88 µM)
SMILES: C[C@H](O)c1nccn1Cc1cc(C#Cc2ccc(OCCCNCCN)cc2)on1

- IC50 [9]: 0.416 µM
- IC50 [10]: 0.0972 µM
- IC50 [11]: 0.0175 µM
SMILES: O=C(NO)[C@@H](Cc1ccc2ccccc2c1)NS(=O)(=O)c1ccc2ccccc2c1

- IC50 [9]: 0.015 µM
SMILES: CNC(=O)[C@H](Cc1c[nH]c2ccccc12)NC(=O)[C@@H](CC(=O)NO)CC(C)C [ILOMASTAT]
